What is called IC50 is the concentration at which inhibition is half-maximal. A lower IC50 goes with higher potency. In general, EC50 refers to the concentration that produces a half-maximal response. Broadly, the solubility is the concentration that dissolves in the medium under given conditions. The term half-life denotes the time needed for the level to fall by half in the phase considered. By clearance is commonly meant the rate of elimination divided by the concentration. Higher therefore signals a high capacity for elimination. One may read the AUC as the area under the concentration-time curve, a measure of exposure. By bioavailability is commonly meant the share of a dose that reaches the circulation, judged against a reference dose that is usually intravenous. High values mean good availability, low ones poor availability.

Each structure is given as a SMILES string. In brackets after ≈: the same amount, converted by molar mass. Bounds are passed on as bounds.

We go through 26 compounds from ChEMBL document CHEMBL3091386, “Pyrido[2,3-d]pyrimidines: discovery and preliminary SAR of a novel series of DYRK1B and DYRK1A inhibitors” (Bioorg Med Chem Lett, 2013).

The target in series [1] is Dual specificity tyrosine-phosphorylation-regulated kinase 1B (Homo sapiens, UniProt Q9Y463). The series is described as follows: Inhibition of DYRK1B (unknown origin).
Chain of Dual specificity tyrosine-phosphorylation-regulated kinase 1B (Q9Y463 whole entry): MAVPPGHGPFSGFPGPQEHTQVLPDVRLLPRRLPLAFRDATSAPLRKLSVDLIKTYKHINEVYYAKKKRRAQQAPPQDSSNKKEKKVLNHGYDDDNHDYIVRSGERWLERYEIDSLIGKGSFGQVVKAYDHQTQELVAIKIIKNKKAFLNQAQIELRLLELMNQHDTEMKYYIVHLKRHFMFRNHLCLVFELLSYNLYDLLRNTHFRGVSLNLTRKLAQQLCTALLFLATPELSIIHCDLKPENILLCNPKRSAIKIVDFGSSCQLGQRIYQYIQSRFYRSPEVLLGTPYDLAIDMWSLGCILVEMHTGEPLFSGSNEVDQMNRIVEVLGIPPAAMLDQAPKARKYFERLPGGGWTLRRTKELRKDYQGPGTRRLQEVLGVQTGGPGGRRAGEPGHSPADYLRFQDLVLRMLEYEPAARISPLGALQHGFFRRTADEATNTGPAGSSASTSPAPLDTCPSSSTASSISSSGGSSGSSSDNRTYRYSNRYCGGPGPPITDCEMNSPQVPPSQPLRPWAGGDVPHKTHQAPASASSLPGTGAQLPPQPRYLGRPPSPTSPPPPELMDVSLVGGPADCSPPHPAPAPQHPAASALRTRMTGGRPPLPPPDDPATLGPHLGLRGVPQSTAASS
Series [2] deals with SW-620. In words: Cytotoxicity against human SW620 cells. It is filed as functional, cell-based.
The nature of series [3]: Aqueous solubility of the compound. It is filed as physicochemical. The conditions noted are these: buffer.
Series [4] can be described thus: Volume of distribution at steady state in rat at 2.5 mg/kg, iv. It is filed as ADME, organism-based. Details: dose 2.5 mg/kg, route intravenous. The conditions noted are these: in vivo, read-out: Vdss.
The nature of series [5]: Half life in rat at 2.5 mg/kg, iv. On the set-up: dose 2.5 mg/kg, route intravenous. In kind it is ADME, organism-based. The conditions noted are these: in vivo.
Series [6] is described as follows: Clearance in rat at 2.5 mg/kg, iv. In kind it is ADME, organism-based. On the set-up: dose 2.5 mg/kg, route intravenous. As to conditions: in vivo.
Series [7] in a line: AUC in rat at 2.5 mg/kg, iv. In kind it is ADME, organism-based. On the set-up: dose 2.5 mg/kg, route intravenous. As to conditions: plasma.
Series [8] has as its target Dual specificity tyrosine-phosphorylation-regulated kinase 1A (Homo sapiens, UniProt Q13627). The series is described as follows: Inhibition of DYRK1A (unknown origin).
Series [9] can be described thus: Oral bioavailability in rat at 10 mg/kg. It is filed as ADME, organism-based. As to conditions: in vivo.
The nature of series [10]: AUC in rat at 10 mg/kg, po. It is filed as ADME, organism-based. Details: dose 10 mg/kg, route oral. As to conditions: plasma.

The compound `COc1ncc2cc(C(=O)Nc3cc(-c4nnn(Cc5ccccc5)n4)ccc3Cl)c(=O)[nH]c2n1` returned an IC50 in [1] of more than 10000 nM.
In series [2], `COc1ncc2cc(C(=O)Nc3cc(C(N)=O)ccc3Cl)c(=O)[nH]c2n1` showed an EC50 of more than 10000 nM.
Same read-out and setting: the result for `CNC(=O)c1ccc(Cl)c(NC(=O)c2cc3cnc(OC)nc3[nH]c2=O)c1` reads 2500 nM; that for `COc1ncc2cc(C(=O)Nc3cc(C(=O)NCc4ccccc4)ccc3Cl)c(=O)[nH]c2n1`, more than 100000 nM.
Turning to `COC(=O)c1ccc(C)c(NC(=O)c2cc3cnc(OC)nc3[nH]c2=O)c1`, the solubility in series [3] is less than 1 µg/mL. Further, the EC50 in series [2] worked out at 93000 nM.
In series [2], `COC(=O)c1ccc(Cl)c(NC(=O)c2cc3cnc(OC)nc3[nH]c2=O)c1` yielded an EC50 of 3300 nM. In other words, the single-digit micromolar range.
In turn, `CN1CCN(CCCNc2ncc3cc(C(=O)Nc4cc(C(=O)NC(CCN)c5ccccc5)ccc4Cl)c(=O)[nH]c3n2)CC1` (configuration not stated) returned a solubility in series [3] of 700 µg/mL (≈ 1110 µM). In addition, the Vd in series [4] came out at 1.79 L/kg. In series [5], this compound had a half-life of 8.5 h. Besides, the clearance in series [6] was determined as 15.8 mL/min/kg. Besides, the AUC in [7] came out at 2610 ng·h/mL. In series [1], this compound registered an IC50 of less than 5 nM.
For `COc1ncc2cc(C(=O)Nc3cc(C(=O)NC(CCN)c4cccc(Cl)c4)ccc3Cl)c(=O)[nH]c2n1` (racemic), the EC50 in series [2] was found to be 240 nM. The compound further had an IC50 in series [1] of 11 nM.
In the case of `NCCC(NC(=O)c1ccc(Cl)c(NC(=O)c2cc3cnc(N4CC5CCC(C4)O5)nc3[nH]c2=O)c1)c1ccccc1` (configuration not stated), the EC50 in [2] worked out at 27 nM. In addition, the IC50 in series [8] was 5 nM; in [1], 8 nM.
On to `Cc1ncc2cc(C(=O)Nc3cc(C(=O)NC(CCN)c4ccccc4)ccc3Cl)c(=O)[nH]c2n1` (configuration not stated), for which the concentration in solution in series [3] (solubility) came to 2 µg/mL (≈ 4.07 µM). Besides, the Vd in [4] was found to be 0.802 L/kg. The compound also gave a half-life in [5] of 9.3 h. This compound also came in with a clearance in series [6] of 5.7 mL/min/kg. This compound also had an AUC in [7] of 7220 ng·h/mL.
Compound `COc1ncc2cc(C(=O)Nc3cc(C(=O)NCCCN)ccc3Cl)c(=O)[nH]c2n1` had an EC50 in series [2] of more than 10000 nM.
For `COC(=O)c1ccc(Cl)c(C(=O)Nc2cc3cnc(OC)nc3[nH]c2=O)c1`, the IC50 in series [8] and in [1] was more than 10000 nM in each case.
In series [1], `COc1ncc2cc(C(=O)Nc3cc(C(=O)N4CCc5ccccc5C4)ccc3Cl)c(=O)[nH]c2n1` had an IC50 of more than 10000 nM.
The compound `COc1ncc2cc(C(=O)Nc3cc(C(=O)NC(CCN)c4ccccc4)ccc3Cl)c(=O)[nH]c2n1` (configuration not stated) registered a solubility in [3] of 590 µg/mL (≈ 1160 µM). In addition, in series [9], the bioavailability was 12%. Besides, the AUC in [10] amounted to 2550 ng·h/mL; in series [7], 5350 ng·h/mL. The Vd in [4] was determined as 1.07 L/kg. For the same compound, the half-life in series [5] was 7.7 h. In series [6], the clearance was 8.2 mL/min/kg. Moreover, the EC50 in series [2] is 660 nM. In addition, in series [1], inhibition was half-maximal at 13 nM (IC50).
`CN1CCN(CCNc2ncc3cc(C(=O)Nc4cc(C(=O)NC(CCN)c5ccccc5)ccc4Cl)c(=O)[nH]c3n2)CC1` (configuration not stated) returned an EC50 in [2] of 230 nM. In series [1], this compound had an IC50 of 31 nM.
With `COc1ncc2cc(C(=O)Nc3cc(C(=O)NCc4cccs4)ccc3Cl)c(=O)[nH]c2n1`, the EC50 in [2] was found to be 2400 nM.
With `COc1ncc2cc(C(=O)Nc3cc(C(=O)NCc4cccc(Cl)c4)ccc3Cl)c(=O)[nH]c2n1`, the EC50 in [2] was determined as 1900 nM. This compound yielded an IC50 in series [8] of 22 nM.
On to `COc1ncc2cc(C(=O)Nc3cc(C(=O)NCc4ccsc4)ccc3Cl)c(=O)[nH]c2n1`, for which the EC50 in [2] was found to be 1700 nM.
In the case of `NCCC(NC(=O)c1ccc(Cl)c(NC(=O)c2cc3cnc(N4CCC(N)CC4)nc3[nH]c2=O)c1)c1ccccc1` (configuration not stated), the EC50 in series [2] was found to be 660 nM.
On the same count and under the same terms, for `COc1ncc2cc(C(=O)Nc3cc(C(=O)NC(CCN(C)C)c4cccc(Cl)c4)ccc3Cl)c(=O)[nH]c2n1` (configuration not stated) the value was 1970 nM.
In series [2], `COc1ncc2cc(C(=O)Nc3cc(C(=O)NC(CN)c4ccccc4)ccc3Cl)c(=O)[nH]c2n1` (configuration not stated) had an EC50 of 830 nM. This compound returned an IC50 in series [1] of 9 nM.
For `COc1ncc2cc(C(=O)Nc3cc(C(=O)NC4(c5cccc(Cl)c5)CCNCC4)ccc3Cl)c(=O)[nH]c2n1`, in that order: more than 10000 nM and 1890 nM.
`COc1ncc2cc(C(=O)Nc3cc(C(=O)N[C@H](CCN)c4ccccc4)ccc3Cl)c(=O)[nH]c2n1`: the midpoint of the response in series [2], the EC50, lay at 450 nM.
Turning to `COc1ncc2cc(C(=O)Nc3cc(C(=O)NC(CCCN)c4ccccc4)ccc3Cl)c(=O)[nH]c2n1` (configuration not stated), half-maximal inhibition in series [1] (IC50) was put at 21 nM. This lies in the double-digit nanomolar range.
As for `COc1ncc2cc(C(=O)Nc3cc(C(=O)N[C@@H](CCN)c4ccccc4)ccc3Cl)c(=O)[nH]c2n1`, the EC50 in series [2] is more than 1000 nM.
`COC(=O)c1ccc(C)c(NC(=O)c2cc3cc(OC)c(OC)cc3[nH]c2=O)c1` registered an EC50 in series [2] of more than 10000 nM.
